Laboratory results from publication PMC5537602, “TRPA1 channel mediates organophosphate-induced delayed neuropathy” (Cell Discovery, 2017).

Tests used:
cTRPA1 = target: T1, cTRPA1 (Gallus gallus, UniProt W8VTH6); assay: Whole-cell patch-clamp, HEK293 cells expressing cTRPA1; format: cell-based, chicken
T1 sequence (W8VTH6 1-1126): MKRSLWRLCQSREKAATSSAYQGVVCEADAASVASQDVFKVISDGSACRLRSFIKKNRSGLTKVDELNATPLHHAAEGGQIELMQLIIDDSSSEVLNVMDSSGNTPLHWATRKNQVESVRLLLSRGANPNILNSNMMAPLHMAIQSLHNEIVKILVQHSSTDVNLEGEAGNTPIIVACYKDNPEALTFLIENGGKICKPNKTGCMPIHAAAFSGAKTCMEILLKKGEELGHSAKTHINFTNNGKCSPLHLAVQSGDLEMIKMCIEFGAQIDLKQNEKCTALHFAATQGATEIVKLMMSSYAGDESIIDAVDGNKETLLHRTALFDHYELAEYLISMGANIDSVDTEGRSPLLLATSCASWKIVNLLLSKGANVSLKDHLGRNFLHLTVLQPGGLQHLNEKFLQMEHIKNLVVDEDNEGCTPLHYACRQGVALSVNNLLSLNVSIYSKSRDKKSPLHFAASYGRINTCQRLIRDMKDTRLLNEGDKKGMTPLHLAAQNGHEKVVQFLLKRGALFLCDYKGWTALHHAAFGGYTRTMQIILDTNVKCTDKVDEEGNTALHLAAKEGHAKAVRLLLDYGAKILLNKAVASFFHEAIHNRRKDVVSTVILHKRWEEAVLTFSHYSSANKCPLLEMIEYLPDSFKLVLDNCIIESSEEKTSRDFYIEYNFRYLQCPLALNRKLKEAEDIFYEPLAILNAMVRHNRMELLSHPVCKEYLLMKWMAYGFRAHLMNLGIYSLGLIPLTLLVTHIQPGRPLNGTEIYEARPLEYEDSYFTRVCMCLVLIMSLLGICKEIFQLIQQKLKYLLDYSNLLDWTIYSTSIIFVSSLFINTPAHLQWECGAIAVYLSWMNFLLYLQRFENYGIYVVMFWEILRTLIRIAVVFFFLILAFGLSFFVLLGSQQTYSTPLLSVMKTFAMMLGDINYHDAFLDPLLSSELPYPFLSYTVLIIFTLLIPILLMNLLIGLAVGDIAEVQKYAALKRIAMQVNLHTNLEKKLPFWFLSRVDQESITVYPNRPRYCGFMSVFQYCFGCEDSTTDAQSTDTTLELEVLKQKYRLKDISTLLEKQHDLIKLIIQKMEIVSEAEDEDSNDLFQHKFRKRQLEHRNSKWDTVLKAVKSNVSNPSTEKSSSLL
Protocol: (§1) All cell culture reagents were purchased from Life Technologies. HEK293 cells were transfected transiently with the corresponding plasmids using lipofectamine 2000 (Life Technologies). Transfection efficiency was monitored by co-transfecting EGFP plasmid which codes for the enhanced green fluorescent protein. Electrophysiological recordings were performed between 24 and 36 h after transfection.
Whole-cell patch-clamp recordings in DRG neurons (small diameter, […]) and HEK293 cells were operated at room temperature (23–25 °C) using EPC-10 amplifier and Patch Master Software (HEKA). […] Currents were sampled at 10 kHz and low-pass filtered at 2.9 kHz. […] The calcium-free external solution contained (in mM) 140 NaCl, 5 KCl, 0.5 EGTA, 1 MgCl2, 10 Glucose and 10 HEPES, with pH adjusted to 7.4 by NaOH and osmolarity 300–310 mOsm. The 0.5 mM EGTA was replaced by 2 mM CaCl2 for the recordings in DRG neurons. TRPA1 currents development was monitored with repetitive injections of 300 ms duration voltage ramps from −100 to +100 mV every 2 s and the holding potential was set to 0 mV for 50 ms, existing in both sides of the voltage ramp. To record inward currents in DRG neurons, we conducted voltage clamp at holding membrane potential of −70 mV. Solutions were switched using a gravity-fed continuous focal perfusion system.

hens = format: in vivo, hen; conditions: hens
Protocol: The chosen adult Hyline Brown hens were raised individually in stainless steel wire cages. After 7 days of acclimatization, the chosen hens were randomly divided into groups (n=6–10 for each group). The hens in the delayed neuropathy groups were administered a single dose of 750 mg kg^−1 TOCP and repeated doses of 75 mg kg^−1 malathion by gavage. TOCP and malathion were dissolved in corn oil and administered at 0.65 ml kg^−1. In the HC030031 treatment groups, 100 mg kg^−1 HC030031 was administered by gavage daily beginning at day 0 or day 11. All hens were examined daily for signs of delayed neurotoxicity. A five-point graded scale was used to describe the clinical symptoms of delayed neuropathy, with 0 indicating normal ambulation; (1) suspected ataxia (lack of strength in the legs and tottering); (2) mild ataxia (slow, clumsy and unsteady gait); (3) gross ataxia (waddling gait and staggering and falling despite being active); (4) mild paralysis (typical paralytic posture and lame appearance); and (5) complete paralysis (unable to maintain posture, stand up or move at all), as described previously.

mTRPA1 = mTRPA1 (Mus musculus, UniProt Q8BLA8); assay: Whole-cell patch-clamp, HEK293 cells expressing mTRPA1; format: cell-based; design: expressed in transfected cells; host or cells: HEK293
Protocol: as §1, with “Human embryonic kidney 293 (HEK293) cells were cultured in DMEM containing 10% (vol/vol) heat-inactivated fetal bovine serum, 100 units ml^−1 penicillin–streptomycin and 2 mM L-glutamine at 37 °C in a humidity-controlled sterile incubator with 5% CO2. All” for “All”
Whole-cell patch-clamp recordings in DRG neurons (small diameter, […]) and HEK293 cells were operated at room temperature (23–25 °C) using EPC-10 amplifier and Patch Master Software (HEKA). […] Currents were sampled at 10 kHz and low-pass filtered at 2.9 kHz. The internal solution was as follows (in mM): 140 CsCl, 10 HEPES, 5 EGTA, 0.1 CaCl2 and 1 MgCl2, with pH adjusted to 7.2 by CsOH and osmolarity 295–300 mOsm. The calcium-free external solution contained (in mM) 140 NaCl, 5 KCl, 0.5 EGTA, 1 MgCl2, 10 Glucose and 10 HEPES, with pH adjusted to 7.4 by NaOH and osmolarity 300–310 mOsm. The 0.5 mM EGTA was replaced by 2 mM CaCl2 for the recordings in DRG neurons. TRPA1 currents development was monitored with repetitive injections of 300 ms duration voltage ramps from −100 to +100 mV every 2 s and the holding potential was set to 0 mV for 50 ms, existing in both sides of the voltage ramp. To record inward currents in DRG neurons, we conducted voltage clamp at holding membrane potential of −70 mV. Solutions were switched using a gravity-fed continuous focal perfusion system.

mTRPA1, sequence (Q8BLA8 whole entry): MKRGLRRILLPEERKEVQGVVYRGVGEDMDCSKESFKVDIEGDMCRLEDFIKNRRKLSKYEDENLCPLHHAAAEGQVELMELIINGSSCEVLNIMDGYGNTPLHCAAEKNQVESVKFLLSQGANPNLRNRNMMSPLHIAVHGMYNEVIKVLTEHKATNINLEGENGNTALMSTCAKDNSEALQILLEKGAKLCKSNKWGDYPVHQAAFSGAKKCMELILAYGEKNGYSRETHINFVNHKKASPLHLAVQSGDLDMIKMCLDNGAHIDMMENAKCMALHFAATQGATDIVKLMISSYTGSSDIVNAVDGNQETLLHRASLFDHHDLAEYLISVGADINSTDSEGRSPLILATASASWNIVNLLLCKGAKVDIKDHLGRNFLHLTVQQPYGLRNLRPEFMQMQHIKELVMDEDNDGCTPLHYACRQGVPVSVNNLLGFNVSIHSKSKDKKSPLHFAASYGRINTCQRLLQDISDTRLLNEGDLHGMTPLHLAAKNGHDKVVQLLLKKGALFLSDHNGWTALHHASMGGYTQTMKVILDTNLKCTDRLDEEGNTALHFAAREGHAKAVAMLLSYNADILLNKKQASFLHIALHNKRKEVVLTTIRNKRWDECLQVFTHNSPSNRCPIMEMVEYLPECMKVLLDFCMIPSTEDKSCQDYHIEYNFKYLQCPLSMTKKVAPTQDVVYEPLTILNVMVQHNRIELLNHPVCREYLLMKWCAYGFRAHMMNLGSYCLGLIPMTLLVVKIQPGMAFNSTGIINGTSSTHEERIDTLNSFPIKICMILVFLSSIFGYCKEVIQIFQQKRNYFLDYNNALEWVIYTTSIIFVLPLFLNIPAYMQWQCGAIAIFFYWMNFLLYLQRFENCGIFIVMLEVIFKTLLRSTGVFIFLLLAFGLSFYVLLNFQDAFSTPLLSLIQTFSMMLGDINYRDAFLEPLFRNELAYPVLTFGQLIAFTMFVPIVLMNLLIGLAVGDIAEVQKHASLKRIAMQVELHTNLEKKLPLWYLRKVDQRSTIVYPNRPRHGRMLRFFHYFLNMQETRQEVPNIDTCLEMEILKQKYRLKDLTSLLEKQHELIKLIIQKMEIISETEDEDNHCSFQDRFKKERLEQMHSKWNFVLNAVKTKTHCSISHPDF

CCOC(=O)CC(SP(=S)(OC)OC)C(=O)OCC (stereo not drawn) [malathion, S-[1,2-bis (ethoxycarbonyl)ethyl] O, O-dimethyl phosphorodithioate]
EC50 (cTRPA1): 10.8 ± 1.68 µM
activation of cTRPA1 whole-cell currents (cTRPA1; calcium-free external solution): large activation current
clinical symptoms of delayed neuropathy (hens; malathion 75 mg kg−1 q.d. for 11 days, day 5): slow and clumsy gait
activation of mTRPA1 whole-cell currents (mTRPA1; 30 μM, calcium-free external solution): large activation current

CC(C)c1ccc(NC(=O)Cn2cnc3c2c(=O)n(C)c(=O)n3C)cc1 [HC030031]
block of malathion-elicited cTRPA1 currents (cTRPA1; 10 μM HC030031): blocked
effect on clinical signs of delayed neuropathy induced by TOCP or malathion (hens; HC030031 100 mg kg−1 daily by gavage from day 0 or day 11): significantly alleviated
block of agonist-elicited mTRPA1 currents (mTRPA1; 10 μM HC030031, malathion or TOCP as agonist): blocked
